Each structure is given as a SMILES string. Calls of active or inactive are those of the source. The calls are words filed in the database; no cut-off is given here.

Common to all, as to assay type: cell-based
The target in data set [1] is T1, Oxysterols receptor LXR-beta (Mus musculus) (UniProt Q60644).
T1 sequence (whole entry): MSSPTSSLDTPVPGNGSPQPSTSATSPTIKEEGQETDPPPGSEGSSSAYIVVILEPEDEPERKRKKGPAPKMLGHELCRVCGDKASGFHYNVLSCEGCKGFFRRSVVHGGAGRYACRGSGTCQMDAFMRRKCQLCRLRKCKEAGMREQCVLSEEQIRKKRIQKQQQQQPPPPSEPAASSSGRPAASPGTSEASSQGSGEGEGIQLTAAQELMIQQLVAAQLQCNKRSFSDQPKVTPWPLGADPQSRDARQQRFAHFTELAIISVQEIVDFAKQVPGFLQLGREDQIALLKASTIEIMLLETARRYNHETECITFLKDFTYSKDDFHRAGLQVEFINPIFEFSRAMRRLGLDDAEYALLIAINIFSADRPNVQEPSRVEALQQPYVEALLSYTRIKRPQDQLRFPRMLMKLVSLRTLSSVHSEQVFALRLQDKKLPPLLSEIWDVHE
Kind of data set: Agonist activity at LXRbeta in mouse BV2 cells assessed as degradation of intracellular soluble amyloid beta42 at 1 uM preincubated for 18 hrs followed by soluble amyloid beta42 addition measured after 24 hrs by ELISA relative to vehicle-treated control. Conditions: BV-2.

The target of data set [2] is T2, Oxysterols receptor LXR-alpha (Homo sapiens) (UniProt Q13133).
T2 sequence (whole entry): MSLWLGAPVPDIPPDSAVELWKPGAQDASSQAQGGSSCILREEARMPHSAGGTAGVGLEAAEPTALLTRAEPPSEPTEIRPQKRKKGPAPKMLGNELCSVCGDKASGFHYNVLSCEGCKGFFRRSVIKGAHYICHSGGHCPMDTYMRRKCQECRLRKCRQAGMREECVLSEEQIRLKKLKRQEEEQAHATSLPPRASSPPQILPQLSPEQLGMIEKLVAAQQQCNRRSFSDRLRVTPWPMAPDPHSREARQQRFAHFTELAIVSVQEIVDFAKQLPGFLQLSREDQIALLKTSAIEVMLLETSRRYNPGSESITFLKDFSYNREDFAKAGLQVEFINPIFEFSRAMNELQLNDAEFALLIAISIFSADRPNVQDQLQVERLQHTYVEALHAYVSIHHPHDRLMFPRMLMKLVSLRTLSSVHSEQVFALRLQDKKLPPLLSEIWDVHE
Kind of data set: Agonist activity at human LXRalpha transfected in HEK293 cells at 1 uM after 24 hrs by luciferase reporter gene assay relative to vehicle-treated control. A general note: In a reporter assay the amount or activity of a reporter protein is the signal.

Data set [3] has as its system HepG2. Kind of data set: Induction of cytoplasmic lipid accumulation in human HepG2 cells at 1 uM after 4 days by oil red O staining-based light microscopic analysis. The settings on record: hepg2, 96 h.
For data set [4], the system named is HepG2. Kind of data set: Induction of intracellular triglyceride accumulation in human HepG2 cells at 1 uM after 4 days relative to vehicle-treated control. The settings on record: hepg2, 96 h.
Data set [5] deals with T3, Oxysterols receptor LXR-beta (Homo sapiens) (UniProt P55055).
T3 sequence (whole entry): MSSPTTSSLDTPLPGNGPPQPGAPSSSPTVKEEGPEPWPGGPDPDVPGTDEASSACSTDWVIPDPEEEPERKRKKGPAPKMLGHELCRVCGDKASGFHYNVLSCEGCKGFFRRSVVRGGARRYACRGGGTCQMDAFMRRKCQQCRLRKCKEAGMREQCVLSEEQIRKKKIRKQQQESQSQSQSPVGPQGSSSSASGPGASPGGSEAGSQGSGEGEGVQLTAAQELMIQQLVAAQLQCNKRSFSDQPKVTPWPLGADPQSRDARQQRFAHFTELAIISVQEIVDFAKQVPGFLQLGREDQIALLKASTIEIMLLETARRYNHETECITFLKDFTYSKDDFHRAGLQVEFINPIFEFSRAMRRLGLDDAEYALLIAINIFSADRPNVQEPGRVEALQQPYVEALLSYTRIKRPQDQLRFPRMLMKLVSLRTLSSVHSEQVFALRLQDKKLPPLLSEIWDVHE
Kind of data set: Agonist activity at human LXRbeta transfected in HEK293 cells at 1 uM after 24 hrs by luciferase reporter gene assay relative to vehicle-treated control.

The target of data set [6] is T3, Oxysterols receptor LXR-beta (Homo sapiens). Kind of data set: Agonist activity at human LXRbeta transfected in HEK293 cells at 0.1 uM after 24 hrs by luciferase reporter gene assay relative to vehicle-treated control.
Data set [7] addresses T2, Oxysterols receptor LXR-alpha (Homo sapiens). Kind of data set: Agonist activity at human LXRalpha transfected in HEK293 cells at 0.1 uM after 24 hrs by luciferase reporter gene assay relative to vehicle-treated control.
In data set [8] the test system is HepG2. Kind of data set: Induction of intracellular triglyceride accumulation in human HepG2 cells at 10 uM after 4 days relative to vehicle-treated control. Conditions: hepg2, 96 h.
The target of data set [9] is T1, Oxysterols receptor LXR-beta (Mus musculus). Kind of data set: Agonist activity at LXRbeta in mouse RAW264.7 cells assessed as induction of ABCA1 promoter activation at 1 uM after 24 hrs by Dual-Glo luciferase reporter gene assay relative to vehicle-treated control.
Data set [10] has the same target. Kind of data set: Agonist activity at LXRbeta in mouse RAW264.7 cells assessed as upregulation of ABCA1 protein expression after 18 to 48 hrs by Western blot analysis.
Data set [11] shares this target. Kind of data set: Agonist activity at LXRbeta in mouse BV2 cells assessed as upregulation of apoE protein expression at 1 uM after 48 hrs by Western blot analysis relative to vehicle-treated control. The settings on record: BV-2. For orientation: A western blot detects proteins with antibodies after separation by electrophoresis.
The target is the same in data set [12]. Kind of data set: Agonist activity at LXRbeta in mouse RAW264.7 cells assessed as upregulation of ABCA1 protein expression at 1 uM after 18 to 48 hrs by Western blot analysis.
The target is the same in data set [13]. Kind of data set: Agonist activity at LXRbeta in mouse BV2 cells assessed as upregulation of ABCA1 protein expression after 12 to 48 hrs by Western blot analysis. The settings on record: BV-2.
Data set [14] has the same target. Kind of data set: Agonist activity at LXRbeta in mouse BV2 cells assessed as upregulation of apoE protein expression at 0.1 uM after 48 hrs by Western blot analysis relative to vehicle-treated control. The settings on record: BV-2.
In another data set the test system is BV-2. Kind of data set: Cytotoxicity against mouse BV2 cells assessed as inhibition of cell viability at 50 uM after 48 hrs by SRB assay relative to vehicle-treated control. Conditions: bv-2, 48 h. Background: The SRB assay estimates cell density from bound dye.
A further data set has as its system RAW264.7. Kind of data set: Cytotoxicity against mouse RAW264.7 cells assessed as inhibition of cell viability at 50 uM after 48 hrs by SRB assay relative to vehicle-treated control. Conditions: raw264.7, 48 h.
Data set [15] is described as follows: Cytotoxicity against human HepG2 cells assessed as inhibition of cell viability at 50 uM after 48 hrs by SRB assay relative to vehicle-treated control. Conditions: HepG2 cells, read-out: Activity.
Data set [16] deals with HepG2. Kind of data set: Induction of cytoplasmic lipid accumulation in human HepG2 cells at 10 uM after 4 days by oil red O staining-based light microscopic analysis. The settings on record: hepg2, 96 h.
Data set [17] deals with T1, Oxysterols receptor LXR-beta (Mus musculus). Kind of data set: Agonist activity at LXRbeta in mouse BV2 cells assessed as upregulation of ABCA1 protein expression at 1 uM after 12 to 48 hrs by Western blot analysis. The settings on record: BV-2.
For a further data set, the system named is HEK293. Kind of data set: Cytotoxicity against HEK293 cells assessed as inhibition of cell viability at 50 uM after 48 hrs by SRB assay relative to vehicle-treated control. Conditions: human, hek293, 48 h.

`O=C(O)Cc1cccc(OCCCN(Cc2cccc(C(F)(F)F)c2Cl)CC(c2ccccc2)c2ccccc2)c1`: the Activity in [1] was 55%; with HepG2 [3], “Toxic”; in the data set on HepG2 [4], 43%; in the data set with HepG2 [8], 242%. Further, the fold change (FC) in data set [2] came to 2.38; in [5], 1.86; in data set [6] it was 1.42; in data set [7] it was 1.53; in data set [9] it was 1.83.

For the compound `O=S(=O)(c1ccccc1)N(CC(F)(F)F)c1ccc(C(O)(C(F)(F)F)C(F)(F)F)cc1` [T091317], the Activity result with HepG2 [3] was “Toxic”; with HepG2 [4], 175%.

For `O=c1cc(-c2c[nH]c3ccccc23)oc2cc(O)ccc12`, the Activity result was “Dose-dependent effect” in [10]; 38% in [1]; “Dose-dependent effect” in [13]; “Non-toxic” in the data set with BV-2; -6% in the data set with HepG2 [4]; “Non-toxic” with RAW264.7. Further, the Activity entry with HepG2 [16] is recorded as “Toxic”; in the data set on HepG2 [8], 18%; in the data set with HEK293, “Non-toxic”. Moreover, the fold change (FC) was 1.4 in data set [11]; 1.02 in [2]; 1.1 in data set [14]; 1.76 in data set [5]; 1.19 in data set [6]; 1.32 in data set [7]. For the same compound, the fold change (FC) in data set [9] was determined as 1.9. In addition, the outcome in [12] and in data set [17] was Active. The inhibition at 48 h, 50 µM in data set [15] turned out to be 45%.
